Reference: patent publication US9458141B2, “Low molecular weight thyroid stimulating hormone receptor (TSHR) agonists” (The United States of America, as represented by the …, priority 2008, dated 2016)
Like-named read-outs stand apart in the source and are kept apart here.

Molecular target: T1, human TSHR (Homo sapiens, UniProt P16473)
T1 construct: expressed in transfected cells
Experiment: Homogeneous Time Resolved Fluorescence (HTRF) cAMP assay, TSHR cell line
Format: cell-based
Details: for Maximum Activity compared to TSH: 100% activity = response of 30 mU/ml TSH, 0% = DMSO control, in %; for AC50: TSHR cell line, 30 minute incubation
Source text: Generation of Stable Cell-Lines Expressing TSHR, LHCGR or FSHR.
cDNA for human TSHR was amplified by PCR from hTSHR-pSVL (1) and inserted into the pcDNA3.1(−)/hygromycin vector using restriction sites XhoI and BamHI. cDNA for human LHCGR was amplified by PCR from hLHR-pGS5 (2) and was inserted into the pcDNA3.1(+)/hygromycin vector using restriction sites BamHI and XhoI. The FSHR cDNA in pcDNA3.1 was obtained from the Missouri S&T cDNA Resource Center (www.cDNA.org) and was subcloned into the pcDNA3.1(−)/hygromycin vector. Constructs were confirmed by sequencing (MWG Biotech). HEK-EM 293 cells were transfected with the cDNA of TSHR, LHCGR or FSHR using FuGENE 6 Transfection reagent (Roche Diagnostics) according to the manufacturer's protocol. Two days after transfection cells were passaged and grown in Dulbecco's modified Eagle's Medium (DMEM) supplemented with 10% fetal bovine serum, 100 units/ml penicillin and 10 μg/ml streptomycin (Life Technologies Inc.) and with hygromycin (250 μg/ml) as a selection marker. After 7 to 10 days hygromycin-resistant clones were selected, and after a few days of further growth submitted for a cAMP assay to identify clones that stably express the appropriate receptor. Cell Culture. Cells stably expressing TSHR, LHCGR or FSHR and parental HEK 293 cells were maintained in DMEM medium containing 10% FBS, 100 units/ml Penicillin, 100 μg/ml Streptomycin, at 37° C. in 5% CO2. For the cells lines stably expressing TSHR, LHCGR or FSHR, additional 250 μg/ml Hygromycin was added during the cell culture. The cells were seeded at a density of 3 to 4 million cells in a T175 flask containing 35 ml of media and were allowed to grow for 3 days to reach 80-90% confluence. A flask of HEK 293 cells at this density generally yielded 30 million cells total. Homogeneous Time Resolved Fluorescence (HTRF) cAMP Assay. Compounds were assayed using a HTRF cAMP detection kit (Cisbio, Bedford, Mass.) on both TSHR cell line and parental cell line. Briefly, 750 cells were plated in 2.5 μl/well of complete media (DMEM containing 10% FCS) in 1536 well solid bottom white plates and 20 nl/well compound in DMSO solution or controls was added. Following 30 minute incubation at room temperature, 2.5 μl/well of labeled d2 cAMP and 2.5 μl/well of anti-cAMP antibody (both diluted 1:20 in lysis buffer) were added to each well using a flying reagent dispenser (Aurora Discovery, San Diego). Plates were measured using the Envision plate reader (PerkinElmer, Boston, Mass.) with excitation at 330 nm and emissions of 615 nm and 660 nm. Compound Preparation. […] Data Analysis. […] The EC50 values of compounds were calculated from the concentration-response curves by nonlinear regression analysis using Prism software (GraphPad Software, San Diego, Calif.). Confirmatory cAMP Assay and Test for Selectivity Towards TSHR 50,000 cells/well were plated in complete media (DMEM containing 10% FCS) in 96 well plates. […] Following aspiration of the medium after incubation with compounds, cells were lysed using lysis buffer of the cAMP-Screen Direct™ System (Applied Biosystems, Cat # CSD200). The cAMP content of the cell lysate was determined using the manufacturer's protocol. […] Below is a List of Compounds that were Assayed via the Homogeneous Time Resolved Fluorescence (HTRF) cAMP Assay.

T1 sequence (P16473 21-764): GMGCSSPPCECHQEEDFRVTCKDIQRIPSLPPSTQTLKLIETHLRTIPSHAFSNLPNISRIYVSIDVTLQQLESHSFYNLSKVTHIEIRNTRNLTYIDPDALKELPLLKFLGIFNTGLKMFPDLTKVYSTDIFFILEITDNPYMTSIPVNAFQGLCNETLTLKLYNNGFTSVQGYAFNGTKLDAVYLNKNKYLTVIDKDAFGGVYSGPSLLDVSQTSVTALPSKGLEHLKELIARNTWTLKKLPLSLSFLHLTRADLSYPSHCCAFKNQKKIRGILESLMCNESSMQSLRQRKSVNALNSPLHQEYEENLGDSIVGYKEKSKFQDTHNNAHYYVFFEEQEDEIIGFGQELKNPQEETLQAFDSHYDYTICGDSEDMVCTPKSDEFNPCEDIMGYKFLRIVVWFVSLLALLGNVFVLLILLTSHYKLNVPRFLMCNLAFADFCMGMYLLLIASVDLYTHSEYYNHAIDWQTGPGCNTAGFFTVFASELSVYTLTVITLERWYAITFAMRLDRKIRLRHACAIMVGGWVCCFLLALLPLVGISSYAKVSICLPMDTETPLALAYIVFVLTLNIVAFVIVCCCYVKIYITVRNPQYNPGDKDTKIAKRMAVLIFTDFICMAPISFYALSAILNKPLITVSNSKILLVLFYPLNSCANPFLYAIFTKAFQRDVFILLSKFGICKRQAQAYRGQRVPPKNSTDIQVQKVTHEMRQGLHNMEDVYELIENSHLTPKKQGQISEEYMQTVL

AC50 (HTRF cAMP, read-out: AC50) | Structure (SMILES) | Maximum Activity compared to TSH | AC50 (AC50, HTRF cAMP)
 | COc1ccc(C2Nc3ccccc3C(=O)N2Cc2ccccc2)cc1COc1ccc(NC(C)=O)cc1 (single isomer, unassigned) [Structure 2] | 217.29 | 11.2 µM
 | COc1ccc(C2Nc3ccccc3C(=O)N2Cc2ccccc2)cc1COc1ccc(NC(C)=O)cc1 (single isomer, unassigned) [Structure 4] | 171.91 | 7.08 µM
 | COc1ccc(C2Nc3ccccc3C(=O)N2Cc2ccccc2)cc1COc1ccc(NC(C)=O)cc1 (single isomer, unassigned) [Structure 7] | 152.47 | 8.91 µM
 | COc1ccc(C2Nc3ccccc3C(=O)N2Cc2ccccc2)cc1COc1ccc(NC(C)=O)cc1 (single isomer, unassigned) [Structure 24] | 159.76 | 7.08 µM
 | COc1ccc(C2Nc3ccccc3C(=O)N2Cc2ccccc2)cc1COc1ccc(NC(C)=O)cc1 (single isomer, unassigned) [Structure 25] | 207.56 | 8.91 µM
 | COc1ccc(C2Nc3ccccc3C(=O)N2Cc2ccccc2)cc1COc1ccc(NC(C)=O)cc1 (single isomer, unassigned) [Structure 26] | 217.05 | 10 µM
 | COc1ccc(C2Nc3ccccc3C(=O)N2Cc2ccccc2)cc1COc1ccc(NC(C)=O)cc1 (single isomer, unassigned) [Structure 37] | 104.22 | 8.91 µM
 | COc1ccc(C2Nc3ccccc3C(=O)N2Cc2ccccc2)cc1COc1ccc(NC(C)=O)cc1 (single isomer, unassigned) [Structure 49] | 134.24 | 3.55 µM
 | COc1ccc(C2Nc3ccccc3C(=O)N2Cc2ccccc2)cc1COc1ccc(NC(C)=O)cc1 (single isomer, unassigned) [Structure 51] | 174.87 | 15.8 µM
 | COc1ccc(C2Nc3ccccc3C(=O)N2Cc2ccccc2)cc1COc1ccc(NC(C)=O)cc1 (single isomer, unassigned) [Structure 55] | 194.91 | 7.94 µM
 | COc1ccc(C2Nc3ccccc3C(=O)N2Cc2ccccc2)cc1COc1ccc(NC(C)=O)cc1 (single isomer, unassigned) [Structure 56] | 110.90 | 11.2 µM
 | COc1ccc(C2Nc3ccccc3C(=O)N2Cc2ccccc2)cc1COc1ccc(NC(C)=O)cc1 (single isomer, unassigned) [Structure 62] | 241.92 | 7.08 µM
 | COc1ccc(C2Nc3ccccc3C(=O)N2Cc2ccccc2)cc1COc1ccc(NC(C)=O)cc1 (single isomer, unassigned) [Structure 63] | 166.46 | 5.01 µM
12.6 µM | COc1ccc(C2Nc3ccccc3C(=O)N2Cc2ccco2)cc1COc1ccc(NC(C)=O)cc1 (centres unmarked) [Structure 1] | 159.24 | 
4.47 µM | COc1ccc(CN2C(=O)c3ccccc3NC2c2ccc(OC)c(COc3ccc(NC(C)=O)cc3)c2)cc1 (centres unmarked) [Structure 3] | 93.95 | 
15.8 µM | COc1ccc(CN(Cc2ccccc2)C(=O)c2ccccc2)cc1COc1ccc(NC(C)=O)cc1 [Structure 5] | 174.77 | 
17.8 µM | COc1ccc(C2Nc3ccccc3C(=O)N2Cc2ccco2)cc1COc1ccc(NC(C)=O)cc1 (centres unmarked) [Structure 6] | 180.81 | 
14.1 µM | COc1ccc(C2Nc3ccccc3C(=O)N2Cc2ccco2)cc1COc1ccc(NC(C)=O)cc1 (centres unmarked) [Structure 8] | 115.96 | 
17.8 µM | COc1ccc(C2Nc3ccccc3C(=O)N2Cc2ccco2)cc1COc1ccc(NC(C)=O)cc1 (centres unmarked) [Structure 9] | 115.62 | 
